Tests used:
[1] = target: T1, human β3 adrenergic receptor (Homo sapiens, UniProt P13945); assay: cAMP accumulation (SPA) in CHO cells transfected with human β3 adrenergic receptor; type: cell-based; details: for EC50: CHO cells expressing human β3-AR, cAMP, 30 min incubation, 10^−9 M to 10^−5 M, read-out: beta-3 EC50; for beta-3 (IA) maximal response relative to isoproterenol: IA = % activity compound / % activity isoproterenol at 10^−5 M, CHO human β3 cells
T1 construct: Full length β3 AR clones (402 amino acids) containing the last 6 amino acids of hβ3— AR are prepared; expressed in transfected cells; host or cells: CHO cells
Outline: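 CHO cells expressing human β3-AR (70–110 fmol/mg protein) treated with compound at 10^−9 to 10^−5 M in DMEM with 250 μM IBMX and 1 mM ascorbic acid, 30 min, 37 °C. cAMP measured by SPA; EC50 derived, and intrinsic activity expressed relative to the maximal response of 10^−5 M isoproterenol.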

[2] = target: T2, human β2-adrenergic receptor (Homo sapiens, UniProt P07550); assay: cAMP accumulation (SPA) in CHO cells transfected with human β2 adrenergic receptor; type: cell-based; details: for EC50: CHO cells transfected with human β2-AR, cAMP, 15 min incubation, 10^−8 to 10^−4 M, read-out: beta-2 EC50; for beta-2 (IA) maximal response relative to isoproterenol: IA = % activity compound / % activity isoproterenol at 10^−5 M, CHO human β2 cells
T2 construct: expressed in transfected cells; host or cells: CHO cells
Outline: (§1)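 CHO cell clones expressing 70–110 fmol/mg protein of receptor were pre-incubated 30 min at 37 °C, then treated 15 min at 37 °C with compound (10^−8 to 10^−4 M) in DMEM with 250 μM IBMX and 1 mM ascorbic acid. cAMP was read by SPA after acid stop. EC50 and IA were expressed relative to maximal 10^−5 M isoproterenol response.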

[3] = target: T3, human β1-adrenergic receptor (Homo sapiens, UniProt P08588); assay: cAMP accumulation (SPA) in CHO cells transfected with human β1 adrenergic receptor; type: cell-based; details: for EC50: CHO cells transfected with human β1-AR, cAMP, 15 min incubation, 10^−8 to 10^−4 M, read-out: beta-1 EC50; for beta-1 (IA) maximal response relative to isoproterenol: IA = % activity compound / % activity isoproterenol at 10^−5 M, CHO human β1 cells
T3 construct: expressed in transfected cells; host or cells: CHO cells
Outline: as §1

T1 sequence (P13945 whole entry): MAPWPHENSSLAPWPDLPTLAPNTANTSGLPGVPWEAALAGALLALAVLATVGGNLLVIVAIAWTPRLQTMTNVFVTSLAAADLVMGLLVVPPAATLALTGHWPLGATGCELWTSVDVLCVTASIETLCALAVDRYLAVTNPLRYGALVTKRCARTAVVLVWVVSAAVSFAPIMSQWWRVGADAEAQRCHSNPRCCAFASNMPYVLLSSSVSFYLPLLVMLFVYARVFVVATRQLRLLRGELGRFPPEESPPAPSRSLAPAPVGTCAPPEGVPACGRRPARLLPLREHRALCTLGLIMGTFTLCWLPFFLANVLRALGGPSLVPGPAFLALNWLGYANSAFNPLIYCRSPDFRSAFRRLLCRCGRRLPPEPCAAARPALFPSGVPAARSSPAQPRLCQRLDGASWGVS
T2 sequence (P07550 whole entry): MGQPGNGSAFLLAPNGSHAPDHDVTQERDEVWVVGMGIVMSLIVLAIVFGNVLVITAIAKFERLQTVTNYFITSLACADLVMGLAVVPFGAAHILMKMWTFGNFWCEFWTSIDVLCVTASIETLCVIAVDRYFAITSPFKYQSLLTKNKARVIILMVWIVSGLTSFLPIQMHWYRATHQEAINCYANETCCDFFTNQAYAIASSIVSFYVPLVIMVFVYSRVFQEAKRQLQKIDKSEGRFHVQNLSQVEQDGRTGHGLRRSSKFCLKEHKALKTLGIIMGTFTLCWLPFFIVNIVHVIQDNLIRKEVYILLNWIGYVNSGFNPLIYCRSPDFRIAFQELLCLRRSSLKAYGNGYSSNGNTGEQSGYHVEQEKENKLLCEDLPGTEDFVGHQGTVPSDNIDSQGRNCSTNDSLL
T3 sequence (P08588 whole entry): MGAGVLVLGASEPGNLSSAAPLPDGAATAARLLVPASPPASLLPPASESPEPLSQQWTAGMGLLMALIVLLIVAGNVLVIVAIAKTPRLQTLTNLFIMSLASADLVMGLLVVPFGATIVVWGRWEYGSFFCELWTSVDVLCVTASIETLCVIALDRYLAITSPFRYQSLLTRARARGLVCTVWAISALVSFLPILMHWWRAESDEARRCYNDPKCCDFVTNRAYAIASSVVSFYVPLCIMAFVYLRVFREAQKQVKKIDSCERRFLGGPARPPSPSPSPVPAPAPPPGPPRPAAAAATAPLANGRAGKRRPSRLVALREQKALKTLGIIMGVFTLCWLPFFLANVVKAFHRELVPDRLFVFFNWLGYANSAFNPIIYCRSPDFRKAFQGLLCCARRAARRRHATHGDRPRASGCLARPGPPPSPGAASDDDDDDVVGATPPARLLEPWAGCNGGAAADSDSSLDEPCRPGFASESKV

Row | Structure (SMILES) | EC50 [1] [nM] | beta-3 (IA) maximal response relative to isoproterenol [1] | EC50 [2] [nM] | beta-2 (IA) maximal response relative to isoproterenol [2] | EC50 [3] [nM] | beta-1 (IA) maximal response relative to isoproterenol [3] | melting point [°C]
1 | CCCCNS(=O)(=O)c1ccc(N2CCC(NC[C@H](O)c3ccc(O)c(NS(C)(=O)=O)c3)CC2)cc1 [Example 14, N-Butyl-4-{4-[(2R)-2-hydroxy-2-(4-hydroxy-3-methanesulfonylamino-phenyl)-ethylamino]-piperidin-1-yl}-benzenesulfonamide] | 1 | (1.3) | 170 | (0.53) | 640 | (1) | 71 to 75
2 | CC(C)OC(=O)C1CCCN1S(=O)(=O)c1ccc(N2CCC(NCC(O)c3ccc(O)c(NS(C)(=O)=O)c3)CC2)cc1 (centres unmarked) [Example 15, 1-(4-{4-[2-Hydroxy-2-(4-hydroxy-3-methanesulfonylamino-phenyl)-ethylamino]-piperidin-1-yl}-benzenesulfonyl)-pyrrolidine-2-carboxylic Acid Isopropyl Ester] | 1 | (1) | 160 | (0.37) | 13000 | (0.23) | 52 to 58
3 | CCCCN(CC(=O)OCc1ccccc1)S(=O)(=O)c1ccc(N2CCC(NC[C@H](O)c3ccc(O)c(NS(C)(=O)=O)c3)CC2)cc1 [Example 19, [Butyl-(4-{4-[(2R)-2-hydroxy-2-(4-hydroxy-3-methanesulfonylamino-phenyl)-ethylamino]-piperidin-1-yl}-benzenesulfonyl)-amino]-acetic Acid Benzyl Ester] | 7 | (1) | – | (0.2) | 790 | (0.54) | 59 to 64
4 | CS(=O)(=O)Nc1cc([C@@H](O)CNC2CCN(c3ccc(S(=O)(=O)N4CCC[C@@H]4C(=O)OCc4ccccc4)cc3)CC2)ccc1O [Example 21, (2R)-1-(4-{4-[(2R)-2-Hydroxy-2-(4-hydroxy-3-methanesulfonylamino-phenyl)-ethylamino]-piperidin-1-yl}-benzenesulfonyl)-pyrrolidine-2-carboxylic Acid Benzyl Ester] | 1 | (1) | 640 | (0.82) | 60 | (0.88) | 62 to 69
5 | CS(=O)(=O)Nc1cc([C@@H](O)CNC2CCN(c3ccc(S(=O)(=O)N4CCC[C@H]4C(=O)OCc4ccccc4)cc3)CC2)ccc1O [Example 22, (2S)-1-(4-{4-[(2R)-2-Hydroxy-2-(4-hydroxy-3-methanesulfonylamino-phenyl)-ethylamino]-piperidin-1-yl}-benzenesulfonyl)-pyrrolidine-2-carboxylic Acid Benzyl Ester] | 2 | (1) | 40 | (0.63) | 200 | (1.08) | 65 to 71
6 | CCCCN(CC(=O)OCC)S(=O)(=O)c1ccc(N2CCC(NC[C@H](O)c3ccc(O)c(NS(C)(=O)=O)c3)CC2)cc1 [Example 23, [Butyl-(4-{4-[(2R)-2-hydroxy-2-(4-hydroxy-3-methanesulfonylamino-phenyl)-ethylamino]-piperidin-1-yl}-benzenesulfonyl)-amino]-acetic Acid Ethyl Ester] | 16 | (1) | 1670 | (0.89) | 1320 | (0.68) | 94 to 95
7 | CS(=O)(=O)Nc1cc([C@@H](O)CNC2CCN(c3ccc(S(=O)(=O)NCCO)cc3)CC2)ccc1O [Example 24, N-(2-Hydroxyethyl)-4-{4-[(2R)-2-hydroxy-2-(4-hydroxy-3-methanesulfonylamino-phenyl)-ethylamino]-piperidin-1-yl)-benzenesulfonamide] | 33 | (0.88) | 1000 | (0.68) | 1000 | (0.35) | 78 to 81
8 | Cc1ccc(S(=O)(=O)c2ccc(N3CCC(NCC(O)c4ccc(O)c(NS(C)(=O)=O)c4)CC3)cc2)cc1 (centres unmarked) [Example 45, N-[2-Hydroxy-5-(1-hydroxy-2-{1-[4-(toluene-4-sulfonyl)-phenyl]-piperidin-4-ylamino}-ethyl)-phenyl]-methanesulfonamide] | 1 | (1) | 700 | (0.63) | 20 | (0.74) | 115 to 118
9 | CC#CCC(CC#CC)(C(=O)OC(C)(C)C)S(=O)(=O)c1ccc(N2CCC(NC[C@H](O)c3ccc(O)c(NS(C)(=O)=O)c3)CC2)cc1 [Example 47, 2-(2-Butynyl)-2-[(4-{4-[((2R)-2-hydroxy-2-{4-hydroxy-3-[(methylsulfonyl)amino]-phenyl}ethyl)amino]-1-piperidinyl}phenyl)sulfonyl]-4-hexynoicacid tert-Butyl Ester] | 6 | (0.93) | 3200 | (0.46) | 1000 | (0.47) | 93 to 95
10 | CC#CCC(CC#CC)(C(=O)O)S(=O)(=O)c1ccc(N2CCC(NC[C@H](O)c3ccc(O)c(NS(C)(=O)=O)c3)CC2)cc1 [Example 48, 2-(2-Butynyl)-2-[(4-{4-[((2R)-2-hydroxy-2-{4-hydroxy-3-[(methylsulfonyl)amino]phenyl}ethyl)amino]-1-piperidinyl}phenyl)sulfonyl]-4-hexynoicacid] | 590 | (1) | 10000 | (0.54) | 10000 | (0.26) | 175 to 177
11 | CS(=O)(=O)Nc1cc([C@@H](O)CNC2CCN(c3ccc(S(=O)(=O)N4CC(=O)NC4=O)cc3)CC2)ccc1O [Example 50, N-[5-((1R)-2-{1-[4-(2,4-Dioxo-imidazolidine-1-sulfonyl)-phenyl]piperidin-4-ylamino}-1-hydroxy-ethyl)-2-hydroxy-phenyl]-methanesulfonamide] | 10 | (1) | 7000 | (0.35) | 2600 | (0.72) | 200 to 202
12 | CC(C)(C)OC(=O)CNS(=O)(=O)c1ccc(N2CCC(NC[C@H](O)c3ccc(O)c(NS(C)(=O)=O)c3)CC2)cc1 [Example 52, tert-Butyl 2-{[(4-{4-[((2R)-2-hydroxy-2-{4-hydroxy-3-[(methylsulfonyl)amino]-phenyl}ethyl)amino]-1-piperidinyl}phenyl)sulfonyl]amino}acetate] | 6 | (1) | 480 | (0.65) | 960 | (0.48) | 113 to 115
